Here are results for 1 compound from patent US9120749B2, “Quinoline derivatives and MELK inhibitors containing the same” (ONCOTHERAPY SCIENCE, INC., priority 2010, dated 2015).

Counter-ions that a name gives are not always drawn.

One assay concerns 22Rv1 cells. Briefly: Cell-based assay: anti-proliferative activity, Cell Counting Kit-8, 72 hours (22Rv1). Conditions: Homo sapiens.
In another assay the test system is A549 cells. Briefly: Cell-based assay: anti-proliferative activity, Cell Counting Kit-8, 72 hours (A549). Conditions: 72 hours, dihydrochloride. In a few lines:
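A549 cells were seeded in 96-well plates and exposed to candidate inhibitors for 72 hours. Cell growth was then measured with Cell Counting Kit-8, and IC50 values were calculated from the resulting growth data.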
For orientation: Tetrazolium assays rely on reduction of a dye to a coloured formazan, in cell work by metabolically active cells.

Another assay relates to T47D cells. Briefly: Cell-based assay: anti-proliferative activity, Cell Counting Kit-8, 72 hours (T47D). Conditions: 72 hours, dihydrochloride. In short, it runs like this: (§1)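 T47D, A549 and BT-549 cells, with MELK-negative HT-1197 as control (MELK status checked by western blot), seeded at 2,000–3,000 cells/well. Growth measured by CCK-8 72 hours after inhibitor exposure; IC50 values calculated.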

The next assay relates to HT-1197 cells. Briefly: Cell-based assay: anti-proliferative activity, Cell Counting Kit-8, 72 hours (HT-1197, negative control without MELK expression). Conditions: HT1197 cells (negative control, no MELK expression), 72 hours; dihydrochloride. In short, it runs like this: as §1
Another assay concerns the target MELK (Homo sapiens, UniProt Q14680). Kind of assay: Kinase assay: MELK activity, phosphorylation of FITC-labeled histone H3 peptide measured by IMAP fluorescence polarization. In kind it is biochemical. Conditions: dihydrochloride; read-out: IC50 (μM) (kinase assay). In a few lines:
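A FITC-labelled histone H3 peptide served as substrate, with compounds serially diluted to 1% DMSO final. Reactions were stopped with three volumes of IMAP progressive binding solution. After 0.5 h at room temperature, fluorescence polarization was read.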
A general note: In fluorescence polarisation assays a small probe gives low polarisation when free and higher when bound to something large.

The next assay relates to DU4475 cells. Kind of assay: Cell-based assay: anti-proliferative activity, Cell Counting Kit-8, 72 hours (DU4475). The note with it: dihydrochloride.

Chain of MELK (Q14680 whole entry, looked up): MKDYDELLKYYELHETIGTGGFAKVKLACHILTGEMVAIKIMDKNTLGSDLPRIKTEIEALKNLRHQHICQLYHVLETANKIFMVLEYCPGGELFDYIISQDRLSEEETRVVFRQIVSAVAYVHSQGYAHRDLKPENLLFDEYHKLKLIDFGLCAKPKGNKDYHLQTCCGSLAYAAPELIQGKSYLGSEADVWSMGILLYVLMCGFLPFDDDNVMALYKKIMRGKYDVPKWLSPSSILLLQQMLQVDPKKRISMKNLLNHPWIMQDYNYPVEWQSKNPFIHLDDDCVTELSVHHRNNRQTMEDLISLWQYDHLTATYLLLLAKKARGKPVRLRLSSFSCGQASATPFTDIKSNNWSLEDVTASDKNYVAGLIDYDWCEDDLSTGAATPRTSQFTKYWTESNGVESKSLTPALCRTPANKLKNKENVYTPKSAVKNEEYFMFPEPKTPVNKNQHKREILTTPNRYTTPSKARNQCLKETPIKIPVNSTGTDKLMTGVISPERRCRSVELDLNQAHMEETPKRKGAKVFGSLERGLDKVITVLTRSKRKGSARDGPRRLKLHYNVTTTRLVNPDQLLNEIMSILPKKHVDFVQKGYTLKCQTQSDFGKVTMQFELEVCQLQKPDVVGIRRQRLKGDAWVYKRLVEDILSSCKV

Take `CC(=O)c1cnc2ccc(-c3cc(F)c(O)c(Cl)c3)cc2c1N[C@H]1CC[C@H](CCN(C)C)CC1` [Example 742, 1-(6-(3-chloro-5-fluoro-4-hydroxyphenyl)-4-(1R,4R)-4-(2-(dimethylamino)ethyl)cyclohexylamino)quinolin-3-yl)ethanone dihydrochloride]: the IC50 (in general, the concentration that inhibits the measured activity by half) in the assay on 22Rv1 cells came out at 0.094 µM; in the assay with A549 cells, 0.078 µM; with T47D cells, 0.034 µM; in the assay on HT-1197 cells, 1.7 µM; on MELK it was 0.0044 µM; in the assay on DU4475 cells, 0.063 µM.
